According to PMC11527646, “Pharmacological blockade of the mast cell MRGPRX2 receptor supports investigation of its relevance in skin disorders” (Frontiers in Immunology, 2024):
“And” between values parts separate entries of the source, which are not always exact repeats. Identical values can stand only once. “Also recorded” adds a separate entry of the source.

Tests used:
[1] = tested on: wild-type mice (C57BL6J strain); assay: Cpd 48/80-induced itch behavioral study in wild-type mice; type: in vivo, mouse
Experimental: On the day of the experiment, animals were allowed to acclimatize to the test chamber for 10 min prior to injection. Mice received a single PO dose of Compound B (or vehicle) as a suspension in 1% methylcellulose at a dose level of 3 mg/kg (dose volume 10 mL/kg). Scratching behavior was monitored over 30 min following a single intra-dermal injection of 10 μL of Cpd 48/80 (10 μg/mL) or vehicle (saline) at 3 h post-dose of the antagonist. A bout of scratching was defined as a hindpaw directed continuous scratching movement at the injection site. The scratching behavior scorer was blinded to treatment.
Supplemental Figure 3: Oral treatment with the potent and selective human MRGPRX2 […]
type mice. The itch behavioral study for wild-type mice (C57BL6J strain) was performed the same way as descripted in the Methods section as for human MRGPRX2 knock-in mice. Compound 48/80 […]
control (18.4 +/- 3.8, n=7) mice (mean +/- SEM; *P < 0.05, Student's t test). As expected, no effect on the scratching behavior (39.8 +/- 12.6, n=6; P=0.795) was observed by oral administration of Compound B to the Compound 48/80 treated mice. […]

MRGPRX2 [2] = biological target: T1, MRGPRX2 (Homo sapiens, UniProt Q96LB1); assay: Substance P-stimulated tryptase release from freshly isolated human skin mast cells; type: cell-based; parameters: human mast cells expressing endogenous MRGPRX2; endogenous in cells; […]; conditions: read-out: pIC50, inhibition of Substance P-stimulated tryptase release (converted)
T1 sequence (Q96LB1 1-330): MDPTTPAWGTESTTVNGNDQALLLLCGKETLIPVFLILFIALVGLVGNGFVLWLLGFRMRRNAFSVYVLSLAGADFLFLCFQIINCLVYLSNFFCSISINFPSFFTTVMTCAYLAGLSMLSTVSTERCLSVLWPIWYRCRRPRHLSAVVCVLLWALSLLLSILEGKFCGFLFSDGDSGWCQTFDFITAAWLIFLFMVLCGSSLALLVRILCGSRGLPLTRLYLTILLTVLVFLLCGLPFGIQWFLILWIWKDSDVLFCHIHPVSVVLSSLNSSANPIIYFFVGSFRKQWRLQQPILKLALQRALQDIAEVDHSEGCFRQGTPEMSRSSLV
Experimental: (§1) Tissue was processed, removing adipose and cutting into small segments. Epidermis was removed after incubation with dispase II (2 mg/mL; Sigma-Aldrich) [100 mL/50-cm^2 tissue, base buffer; Dulbecco’s Phosphate-buffered Saline (D-PBS) (Gibco, supplemented with Ca^2+/Mg^2+), amphotericin B (2.5 μg/mL), penicillin (100 units/mL)/streptomycin (100 μg/mL) (Sigma-Aldrich)] for 37°C for 2–4 h followed by 4°C overnight. The remaining dermis was homogenized into a uniform mass and digested with an enzyme cocktail [collagenase IV (10 mg/mL; Gibco), hyaluronidase I-S (5 mg/mL; Sigma), DNAse I (10 μg/ml; Roche)] in base buffer (supplemented with 10% FBS) in a shaking incubator at 37°C for 90 min. […]
(§2) For human primary skin mast cell degranulation experiments, both β-hexosaminidase and tryptase were measured. […] Plates were centrifuged, with supernatants collected and lysates generated [cell pellets lysed in 0.1% Tx100 (Sigma), in assay buffer], and then stored at −80°C for later quantification. β-Hexosaminidase activity assay was performed as already described. For tryptase quantification: The amount of total tryptase (α and β tryptase) was quantified using the ImmunoCap Tryptase Test ran on either a Phadia 100 or 250 Immunoassay Analyzer as per the manufacturer’s protocol. […]

[3] = Blood-free concentration at end of itch observation period; type: in vivo, mouse; conditions: 3 mg/kg PO, average ± SD
Experimental: Figure 6 Oral treatment with the potent and selective MRGPRX2 antagonist, Compound B (3 mg/kg), blocks Cpd 48/80–induced itch response using human MRGPRX2 knock-in mice. […] Average ± SD blood-free concentration of antagonist measured at end of “itch” observation period was 19 ± 16 nM Compound B.
This study provides pharmacological evidence that MRGPRX2 is solely responsible for mediating an SP response in a human tissue, in this instance, skin. Finally, human MRGPRX2 knock-in mice were used to provide initial proof of target engagement of MRGPRX2 antagonists in the skin using an established behavioral scratching model.

MRGPRX2 [4] = biological target: T1, MRGPRX2; assay: FcεR1/MRGPRX2 dual-stimulation β-hexosaminidase release in freshly isolated human skin mast cells; type: cell-based; parameters: human mast cells expressing endogenous MRGPRX2; endogenous in cells; […]; conditions: Substance P plus anti-IgE (10 μg/mL); n = 3 donors
Experimental: as §1, §2

C[C@@H](C(=O)Nc1cnc(Oc2ccc(F)cc2F)cn1)N1CCC(F)(F)[C@@H](c2cc[n+]([O-])cc2)C1 [Compound B]
Effect on Cpd 48/80-induced scratching behavior ([1]; 3 mg/kg oral, wild-type mice): did not block; also recorded: no effect was observed
Scratching counts ([1]; Compound B 3 mg/kg oral in Compound 48/80 treated wild-type mice, mean +/- SEM, n=6): 39.8 +/- 12.6
IC50 (MRGPRX2 [2]): 0.417 nM
Blood-free concentration of antagonist [3]: 19 ± 16 nM and 19 nM
Effect on MRGPRX2-dependent augmentation of FcεR1/MRGPRX2 dual-stimulation β-hexosaminidase release (MRGPRX2 [4]): selectively inhibits
